Results published in the NIST ThermoML archive (doi:10.1016/j.jct.2019.02.020).

Experiment: mn = molality of the nth substance listed, in mol/kg
Conditions: 100 kPa, Liquid; for viscosity: Falling or rolling sphere viscometry; for mass density: Vibrating tube method

O=S(=O)([O-])[O-].[O]=[V+2] [oxovanadium(IV) sulfate] + O
Conditions | mass density, 293.15 K [kg/m3] | viscosity, 283.15 K [mPa·s] | viscosity, 288.15 K [mPa·s] | viscosity, 293.15 K [mPa·s] | viscosity, 298.15 K [mPa·s]
m1 = 0.2501 | 1034.67 | 1.551 | 1.347 | 1.183 | 1.049
m1 = 0.5 | 1069.8 | 1.861 | 1.61 | 1.409 | 1.244
m1 = 0.7507 | 1104.11 | 2.242 | 1.932 | 1.682 | 1.479
m1 = 0.9964 | 1136.2 | 2.697 | 2.312 | 2.005 | 1.755
m1 = 1.25 | 1169.5 | 3.308 | 2.816 | 2.429 | 2.115
m1 = 1.5 | 1201.04 | 4.052 | 3.427 | 2.936 | 2.543
m1 = 1.75 | 1231.58 | 4.966 | 4.171 | 3.548 | 3.052
m1 = 2 | 1261.16 | 6.108 | 5.092 | 4.304 | 3.679
m1 = 2.249 | 1289.97 | 7.543 | 6.238 | 5.238 | 4.448
m1 = 2.499 | 1317.94 | 9.273 | 7.615 | 6.348 | 5.359
m1 = 2.75 | 1345.06 | 11.55 | 9.405 | 7.784 | 6.524
